Experiments:
Assay type in all cases: biochemical
Itk = target: T1, Itk (Homo sapiens, UniProt Q08881); experiment: Kinase inhibition assay (33P transfer), Itk; details: Table 3; read-out: Itk-1
T1 construct: Kinases are expressed as either kinase domains or full length constructs; made in house
T1 sequence (Q08881 1-620): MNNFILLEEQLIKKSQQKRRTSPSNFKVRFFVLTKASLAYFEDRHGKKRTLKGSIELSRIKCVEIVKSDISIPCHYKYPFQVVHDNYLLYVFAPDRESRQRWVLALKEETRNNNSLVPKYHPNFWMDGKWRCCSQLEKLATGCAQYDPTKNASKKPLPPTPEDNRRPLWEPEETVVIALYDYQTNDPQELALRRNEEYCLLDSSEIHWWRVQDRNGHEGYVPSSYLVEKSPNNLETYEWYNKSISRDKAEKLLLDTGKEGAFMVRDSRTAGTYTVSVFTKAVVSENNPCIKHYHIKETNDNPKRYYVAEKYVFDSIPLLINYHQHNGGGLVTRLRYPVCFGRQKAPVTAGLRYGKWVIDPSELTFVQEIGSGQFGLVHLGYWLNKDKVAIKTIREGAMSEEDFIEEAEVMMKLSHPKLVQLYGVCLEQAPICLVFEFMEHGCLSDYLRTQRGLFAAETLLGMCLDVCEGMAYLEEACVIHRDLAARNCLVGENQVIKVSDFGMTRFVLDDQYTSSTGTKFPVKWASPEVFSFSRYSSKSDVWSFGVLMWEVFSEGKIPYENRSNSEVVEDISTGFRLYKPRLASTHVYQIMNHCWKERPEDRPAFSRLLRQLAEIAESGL
Procedure, shortened: (§1)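 Steps: coat wells with poly(Glu,Tyr) 4:1 or poly(Arg,Ser) 3:1; add purified kinase, [33P]ATP and inhibitor; incubate; wash with 0.5% phosphoric acid; add liquid scintillant; count. IC50 corresponds to half-maximal reduction of bound 33P.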

Tek = target: T2, Tek (Homo sapiens, UniProt Q02763); experiment: Kinase inhibition assay (33P transfer), Tek; details: read-out: Tek-1
T2 construct: Kinases are expressed as either kinase domains or full length constructs; made in house
Source text: The inhibitor compounds described herein are screened in the following manner. Kinases suitable for use in the following protocol to determine kinase activity of the compounds described herein include, -but are not limited to: Lck, Lyn, Src, Fyn, Syk, Zap-70, Itk, Tec, Btk, EGFR, ErbB2, Kdr, Flt-1, Flt-3, Tek, c-Met, InsR, and AKT.
Kinases are expressed as either kinase domains or full length constructs fused to glutathione S-transferase (GST) or polyHistidine tagged fusion proteins in either E. colior Baculovirus-High Five expression systems. They are purified to near homogeneity by affinity chromatography essentially as previously described (Lehr et al., 1996; Gish et al., 1995). In some instances, kinases are co-expressed or mixed with purified or partially purified regulatory polypeptides prior to measurement of activity.
Kinase activity and inhibition are measured essentially by established protocols (Braunwalder et al., 1996). Briefly, The transfer of ^33PO4 from ATP to the synthetic substrates poly(Glu, Tyr) 4:1 or poly(Arg, Ser) 3:1 attached to the bioactive surface of microtiter plates serves as the basis to evaluate enzyme activity. After an incubation period, the amount of phosphate transferred is measured by first washing the plate with 0.5% phosphoric acid, adding liquid scintillant, and then counting in a liquid scintillation detector. The IC50 is determined by the concentration of compound that causes a 50% reduction in the amount of […] incorporated onto the substrate bound to the plate.

Zap-70 = target: T3, Zap-70 (Homo sapiens, UniProt P43403); experiment: Kinase inhibition assay (33P transfer), Zap-70; details: Table 3; read-out: Zap-1
T3 construct: Kinases are expressed as either kinase domains or full length constructs; made in house
T3 sequence (P43403 1-619): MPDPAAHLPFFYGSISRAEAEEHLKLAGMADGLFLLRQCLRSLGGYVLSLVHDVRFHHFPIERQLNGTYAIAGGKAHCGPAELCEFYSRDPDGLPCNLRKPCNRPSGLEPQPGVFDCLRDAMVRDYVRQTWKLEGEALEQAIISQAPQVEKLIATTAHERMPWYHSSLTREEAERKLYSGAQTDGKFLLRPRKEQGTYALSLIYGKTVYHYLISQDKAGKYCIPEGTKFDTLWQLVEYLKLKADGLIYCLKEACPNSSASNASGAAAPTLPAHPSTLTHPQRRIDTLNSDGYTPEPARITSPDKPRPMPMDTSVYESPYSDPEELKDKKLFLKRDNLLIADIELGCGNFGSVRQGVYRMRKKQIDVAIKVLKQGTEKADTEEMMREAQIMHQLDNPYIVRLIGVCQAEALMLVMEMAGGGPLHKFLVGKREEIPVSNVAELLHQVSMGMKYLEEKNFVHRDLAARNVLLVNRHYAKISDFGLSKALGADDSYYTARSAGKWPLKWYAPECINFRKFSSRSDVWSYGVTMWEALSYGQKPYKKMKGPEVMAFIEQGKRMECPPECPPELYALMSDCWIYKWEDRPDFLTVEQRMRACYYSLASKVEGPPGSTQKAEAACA
Procedure, shortened: (§2)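 Measured by scintillation: radiolabelled phosphate added by tagged recombinant kinases to poly(Glu,Tyr) 4:1 or poly(Arg,Ser) 3:1 attached to microtiter wells, counted once free label was washed away with 0.5% phosphoric acid.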

Lck = target: T4, Lck (Homo sapiens, UniProt P06239); experiment: Kinase inhibition assay (33P transfer), Lck; details: Table 3; read-out: Lck-1
T4 construct: Kinases are expressed as either kinase domains or full length constructs; made in house
T4 sequence (P06239 whole entry, species assumed, the tested form may be a part): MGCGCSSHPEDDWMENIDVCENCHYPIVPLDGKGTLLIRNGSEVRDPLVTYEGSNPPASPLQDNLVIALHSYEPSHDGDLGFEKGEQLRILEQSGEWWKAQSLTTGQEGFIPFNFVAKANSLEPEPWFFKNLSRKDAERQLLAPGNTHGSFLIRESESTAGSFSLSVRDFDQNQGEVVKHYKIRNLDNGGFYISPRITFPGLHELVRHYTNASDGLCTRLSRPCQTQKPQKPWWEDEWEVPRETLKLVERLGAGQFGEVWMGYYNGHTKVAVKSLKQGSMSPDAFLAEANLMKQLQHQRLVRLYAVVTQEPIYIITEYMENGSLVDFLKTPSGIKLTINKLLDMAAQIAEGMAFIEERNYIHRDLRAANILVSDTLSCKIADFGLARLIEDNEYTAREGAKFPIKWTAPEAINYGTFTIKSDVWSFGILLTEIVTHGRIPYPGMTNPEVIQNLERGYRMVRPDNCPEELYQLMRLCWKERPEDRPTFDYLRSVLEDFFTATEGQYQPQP
Procedure, shortened: as §2

c-Met = target: T5, c-Met (Homo sapiens, UniProt P08581); experiment: Kinase inhibition assay (33P transfer), c-Met; details: Table 2, kinase inhibition class; read-out: Met-1
T5 construct: Kinases are expressed as either kinase domains or full length constructs; made in house
T5 sequence (P08581 25-1390): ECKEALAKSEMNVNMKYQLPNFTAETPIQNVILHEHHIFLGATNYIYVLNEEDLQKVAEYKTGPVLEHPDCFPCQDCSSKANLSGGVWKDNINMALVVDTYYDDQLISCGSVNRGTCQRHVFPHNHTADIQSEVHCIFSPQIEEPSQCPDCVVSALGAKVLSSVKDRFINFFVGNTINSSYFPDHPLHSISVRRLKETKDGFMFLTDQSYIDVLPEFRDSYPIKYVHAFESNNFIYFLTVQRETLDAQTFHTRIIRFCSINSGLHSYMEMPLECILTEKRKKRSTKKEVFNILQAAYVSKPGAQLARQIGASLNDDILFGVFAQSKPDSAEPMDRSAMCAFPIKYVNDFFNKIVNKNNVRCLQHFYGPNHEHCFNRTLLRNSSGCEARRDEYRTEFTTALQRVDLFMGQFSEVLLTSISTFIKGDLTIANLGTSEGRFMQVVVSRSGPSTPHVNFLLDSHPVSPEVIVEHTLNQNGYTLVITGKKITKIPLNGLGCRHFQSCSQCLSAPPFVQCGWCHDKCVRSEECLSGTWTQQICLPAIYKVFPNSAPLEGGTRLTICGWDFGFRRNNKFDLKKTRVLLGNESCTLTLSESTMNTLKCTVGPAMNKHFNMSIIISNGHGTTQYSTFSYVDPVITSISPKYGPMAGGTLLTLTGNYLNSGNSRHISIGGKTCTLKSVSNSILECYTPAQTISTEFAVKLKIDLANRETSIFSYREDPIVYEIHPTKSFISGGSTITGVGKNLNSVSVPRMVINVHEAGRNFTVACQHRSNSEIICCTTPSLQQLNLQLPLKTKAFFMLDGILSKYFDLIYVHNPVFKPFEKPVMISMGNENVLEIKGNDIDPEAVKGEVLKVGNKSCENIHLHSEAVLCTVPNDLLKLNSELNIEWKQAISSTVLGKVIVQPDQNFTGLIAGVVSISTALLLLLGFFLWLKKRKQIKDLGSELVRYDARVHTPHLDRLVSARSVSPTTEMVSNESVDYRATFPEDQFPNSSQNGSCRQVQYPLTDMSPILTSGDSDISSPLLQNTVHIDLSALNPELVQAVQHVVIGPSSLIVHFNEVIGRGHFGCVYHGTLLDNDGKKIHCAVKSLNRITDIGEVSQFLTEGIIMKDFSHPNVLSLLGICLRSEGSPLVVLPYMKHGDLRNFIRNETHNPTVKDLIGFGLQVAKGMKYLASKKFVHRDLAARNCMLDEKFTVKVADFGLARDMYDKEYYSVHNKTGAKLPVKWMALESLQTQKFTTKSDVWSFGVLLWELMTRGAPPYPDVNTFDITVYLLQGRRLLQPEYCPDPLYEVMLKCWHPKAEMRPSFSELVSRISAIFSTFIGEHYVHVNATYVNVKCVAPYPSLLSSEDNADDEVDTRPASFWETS
Procedure, shortened: as §1

EGFR = target: T6, EGFR (Homo sapiens, UniProt P00533); experiment: Kinase inhibition assay (33P transfer), EGFR; details: Table 2, kinase inhibition class; read-out: EGFR-1
T6 construct: Kinases are expressed as either kinase domains or full length constructs; made in house
T6 sequence (P00533 25-1210, species assumed): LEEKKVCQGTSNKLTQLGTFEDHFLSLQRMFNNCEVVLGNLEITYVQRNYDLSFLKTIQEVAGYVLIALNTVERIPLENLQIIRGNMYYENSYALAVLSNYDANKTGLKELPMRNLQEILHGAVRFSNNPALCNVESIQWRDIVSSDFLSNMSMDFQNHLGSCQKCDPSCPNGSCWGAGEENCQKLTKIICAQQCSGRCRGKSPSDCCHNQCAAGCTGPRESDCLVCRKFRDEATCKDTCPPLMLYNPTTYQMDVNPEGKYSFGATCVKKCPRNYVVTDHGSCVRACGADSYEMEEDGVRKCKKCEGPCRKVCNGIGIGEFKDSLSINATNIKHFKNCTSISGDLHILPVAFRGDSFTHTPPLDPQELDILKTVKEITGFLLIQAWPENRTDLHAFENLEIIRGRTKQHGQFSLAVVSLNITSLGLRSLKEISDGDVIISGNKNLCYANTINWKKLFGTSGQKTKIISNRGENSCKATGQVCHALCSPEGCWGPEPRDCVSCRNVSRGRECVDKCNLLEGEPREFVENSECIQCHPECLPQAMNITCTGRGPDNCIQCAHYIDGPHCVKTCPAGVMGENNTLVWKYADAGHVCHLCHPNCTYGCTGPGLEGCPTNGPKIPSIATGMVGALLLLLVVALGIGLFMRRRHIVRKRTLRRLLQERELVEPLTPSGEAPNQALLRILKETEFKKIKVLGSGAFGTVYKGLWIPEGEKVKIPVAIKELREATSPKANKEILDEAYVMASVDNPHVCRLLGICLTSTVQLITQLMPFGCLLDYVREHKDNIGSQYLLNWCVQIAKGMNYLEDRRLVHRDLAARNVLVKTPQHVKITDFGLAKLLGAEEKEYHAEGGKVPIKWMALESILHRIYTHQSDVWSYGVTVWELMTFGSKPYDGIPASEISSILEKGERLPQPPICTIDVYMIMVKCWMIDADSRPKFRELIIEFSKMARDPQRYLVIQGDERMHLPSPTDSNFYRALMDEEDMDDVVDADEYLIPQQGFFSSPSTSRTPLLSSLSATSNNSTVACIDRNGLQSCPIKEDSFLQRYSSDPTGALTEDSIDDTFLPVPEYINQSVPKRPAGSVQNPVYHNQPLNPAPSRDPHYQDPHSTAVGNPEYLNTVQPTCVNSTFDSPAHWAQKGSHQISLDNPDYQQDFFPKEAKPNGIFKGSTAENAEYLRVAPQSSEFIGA
Procedure, shortened: as §1

Kdr = target: T7, Kdr (Homo sapiens, UniProt P35968); experiment: Kinase inhibition assay (33P transfer), Kdr; details: Table 3; read-out: KDR-1
T7 construct: Kinases are expressed as either kinase domains or full length constructs; made in house
T7 sequence (P35968 20-1356, species assumed): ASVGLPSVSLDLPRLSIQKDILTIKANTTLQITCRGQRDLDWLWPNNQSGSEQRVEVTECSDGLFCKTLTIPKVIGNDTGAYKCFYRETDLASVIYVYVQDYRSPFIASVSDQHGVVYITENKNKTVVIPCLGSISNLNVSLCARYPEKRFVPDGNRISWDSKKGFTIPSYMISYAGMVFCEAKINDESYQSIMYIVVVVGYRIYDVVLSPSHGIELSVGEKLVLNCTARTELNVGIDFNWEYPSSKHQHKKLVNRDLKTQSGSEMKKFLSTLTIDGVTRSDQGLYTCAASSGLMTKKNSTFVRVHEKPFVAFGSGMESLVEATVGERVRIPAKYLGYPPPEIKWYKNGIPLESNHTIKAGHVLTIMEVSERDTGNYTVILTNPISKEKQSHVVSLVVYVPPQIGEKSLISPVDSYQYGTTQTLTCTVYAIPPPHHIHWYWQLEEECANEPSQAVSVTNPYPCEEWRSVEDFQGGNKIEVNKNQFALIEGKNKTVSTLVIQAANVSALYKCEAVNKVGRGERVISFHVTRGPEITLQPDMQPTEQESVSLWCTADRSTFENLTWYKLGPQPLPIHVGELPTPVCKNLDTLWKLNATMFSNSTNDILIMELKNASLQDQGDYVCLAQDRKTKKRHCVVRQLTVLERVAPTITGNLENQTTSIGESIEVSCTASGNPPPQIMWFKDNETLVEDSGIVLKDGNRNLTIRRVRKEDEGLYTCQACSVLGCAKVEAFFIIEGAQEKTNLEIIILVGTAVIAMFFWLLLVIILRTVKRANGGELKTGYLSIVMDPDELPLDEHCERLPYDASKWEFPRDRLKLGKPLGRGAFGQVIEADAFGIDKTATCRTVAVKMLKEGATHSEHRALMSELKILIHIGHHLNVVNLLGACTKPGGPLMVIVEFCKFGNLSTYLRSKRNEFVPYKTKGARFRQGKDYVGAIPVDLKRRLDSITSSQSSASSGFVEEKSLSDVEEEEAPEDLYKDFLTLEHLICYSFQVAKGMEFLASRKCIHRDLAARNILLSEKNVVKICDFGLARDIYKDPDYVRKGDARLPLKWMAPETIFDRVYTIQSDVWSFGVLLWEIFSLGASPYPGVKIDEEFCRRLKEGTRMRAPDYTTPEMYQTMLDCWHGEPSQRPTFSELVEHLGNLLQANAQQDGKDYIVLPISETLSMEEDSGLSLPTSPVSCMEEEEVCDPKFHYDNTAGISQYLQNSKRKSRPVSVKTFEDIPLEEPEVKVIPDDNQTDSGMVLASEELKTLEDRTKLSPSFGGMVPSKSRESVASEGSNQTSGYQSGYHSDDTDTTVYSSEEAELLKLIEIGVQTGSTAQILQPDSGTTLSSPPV
Procedure, shortened: as §2

AKT = target: T8, AKT (Homo sapiens, UniProt Q9Y243); experiment: Kinase inhibition assay (33P transfer), AKT; details: Table 2, kinase inhibition class; read-out: AKT3-1
T8 construct: Kinases are expressed as either kinase domains or full length constructs; made in house
T8 sequence (Q9Y243 whole entry, the tested form may be a part): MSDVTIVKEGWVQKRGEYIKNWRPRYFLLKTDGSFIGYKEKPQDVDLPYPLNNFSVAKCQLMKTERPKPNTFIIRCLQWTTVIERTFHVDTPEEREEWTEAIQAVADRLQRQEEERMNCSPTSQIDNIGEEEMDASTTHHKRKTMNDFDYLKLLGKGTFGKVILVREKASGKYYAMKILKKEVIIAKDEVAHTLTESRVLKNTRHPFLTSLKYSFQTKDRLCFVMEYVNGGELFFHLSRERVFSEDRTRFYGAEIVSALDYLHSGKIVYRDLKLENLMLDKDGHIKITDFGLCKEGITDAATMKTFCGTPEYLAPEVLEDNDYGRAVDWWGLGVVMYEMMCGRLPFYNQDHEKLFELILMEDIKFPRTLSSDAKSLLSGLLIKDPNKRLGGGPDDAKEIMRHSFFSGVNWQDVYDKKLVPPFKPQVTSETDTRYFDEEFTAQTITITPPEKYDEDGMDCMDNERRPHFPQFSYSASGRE
Procedure, shortened: as §2

Compound | IC50 (Itk) [µM] | IC50 (Tek) [µM] | IC50 (Zap-70) [µM] | IC50 (Lck) [µM] | IC50 (c-Met) [µM] | IC50 (EGFR) [µM] | IC50 (Kdr) [µM] | IC50 (AKT) [µM]
COc1cc(Nc2ncnc(N[C@@H](CO)c3ccccc3)n2)cc(OC)c1OC [Compound 427] | > 11.3 | > 11.3 | > 11.3 | > 11.3 | > 11.3 | > 11.3 | > 11.3 | > 11.3
COc1cc(Nc2ncnc(Nc3nccs3)n2)cc(OC)c1OC [Compound 442] | > 12.5 | > 12.5 | > 12.5 | > 12.5 | > 12.5 | > 12.5 | 6.66 to 9.71 | > 12.5
O=c1[nH]c2ccccc2n1-c1ncnc(Nc2ccc(OC(F)(F)F)cc2)n1 [Compound 462] | > 11.6 | 6.18 to 9.01 | 6.18 to 9.01 | 9.01 to 11.6 | 9.01 to 11.6 | > 11.6 | > 11.6 | > 11.6
COc1cc(Nc2ncnc(-n3ccc4ccc(F)cc43)n2)cc(OC)c1OC [Compound 464] | > 11.4 | > 11.4 | > 11.4 | 6.07 to 8.85 | > 11.4 | > 11.4 | 1.01 to 6.07 | > 11.4

Results, then the compound that gave them:

IC50 (Itk) [µM] | IC50 (Tek) [µM] | IC50 (Zap-70) [µM] | IC50 (Lck) [µM] | IC50 (c-Met) [µM] | IC50 (EGFR) [µM] | IC50 (Kdr) [µM] | IC50 (AKT) [µM] | Compound
9.42 to 12.1 | 9.42 to 12.1 | > 12.1 | 1.08 to 6.46 | > 12.1 | 1.08 to 6.46 | < 1.08 | 1.08 to 6.46 | O=c1[nH]c2ccccc2n1-c1ncnc(Nc2cccc(-c3cnco3)c2)n1 [Compound 418]
> 8.92 | 6.94 to 8.92 | > 8.92 | > 8.92 | > 8.92 | 0.793 to 4.76 | 0.793 to 4.76 | 0.793 to 4.76 | O=c1[nH]c2ccccc2n1-c1ncnc(Nc2ccc(NS(=O)(=O)c3ccc([N+](=O)[O-])cc3)cc2)n1 [Compound 422]
5.35 to 7.8 | 5.35 to 7.8 | > 10 | 7.8 to 10 | > 10 | 0.892 to 5.35 | 0.892 to 5.35 | 5.35 to 7.8 | CC(C)(C)OC(=O)NCc1ccc(Nc2ncnc(Nc3cc(-c4ccco4)n[nH]3)n2)cc1 [Compound 431]
8.63 to 11.1 | > 11.1 | > 11.1 | > 11.1 | 0.987 to 5.92 | 0.987 to 5.92 | 0.987 to 5.92 | > 11.1 | CCOC(=O)Cc1ccc(Nc2ncnc(Nc3cc(-c4ccco4)n[nH]3)n2)cc1 [Compound 432]
1.08 to 6.48 | 1.08 to 6.48 | 9.45 to 12.1 | 1.08 to 6.48 | 1.08 to 6.48 | 1.08 to 6.48 | 1.08 to 6.48 | 6.48 to 9.45 | Nc1nc2ccccc2n1-c1ncnc(Nc2ccc(-c3cnco3)cc2)n1 [Compound 438]
> 10.3 | > 10.3 | > 10.3 | > 10.3 | > 10.3 | > 10.3 | > 10.3 | > 10.3 | COc1cc(Nc2ncnc(Nc3nc(-c4ccccc4)cs3)n2)cc(OC)c1OC [Compound 444]

— patent publication US7074789B2, “Kinase inhibitors” (Amgen Inc., priority 1999, dated 2006)
